From ChEMBL document CHEMBL5120796, “A novel photocaged B-RafV600E inhibitor toward precise melanoma treatment” (Bioorg Med Chem Lett, 2022)
The source made the active and inactive calls. No cut-off for these calls is given here.

Assays:
A-375 [1] = assay: Antiproliferative activity against human A-375 cells harboring B-RAF V600E mutant assessed as cell growth inhibition irradiated with 365 nm UV light for 0.5 mins measured after 72 hrs by CCK-8 analysis; type: functional, cell-based; conditions: A-375, light or radiation study
A-375 [2] = assay: Antiproliferative activity against human A-375 cells harboring B-RAF V600E mutant assessed as cell growth inhibition irradiated with sun light for 10 mins measured after 72 hrs by CCK-8 analysis; type: functional, cell-based; conditions: A-375, light or radiation study
[3] = Retention time of compound in PBS buffer by UPLC analysis; type: physicochemical; conditions: dose 5.85 µg/ml
A-375 [4] = assay: Antiproliferative activity against human A-375 cells harboring B-RAF V600E mutant assessed as cell growth inhibition irradiated with sun light for 5 mins measured after 72 hrs by CCK-8 analysis; type: functional, cell-based; conditions: A-375, light or radiation study
A-375 [5] = assay: Inhibition of ERK phosphorylation in human A-375 cells at 0.1 to 10 uM incubated for 2 hrs by Western blot analysis; type: cell-based; conditions: dose 0.1-10 µM
SK-MEL-2 [6] = assay: Antiproliferative activity against human SK-MEL-2 cells harboring wild type B-RAF assessed as cell growth inhibition measured after 72 hrs by CCK-8 analysis; type: functional, cell-based; conditions: SK-MEL-2, 72 h
A-375 [7] = assay: Antiproliferative activity against human A-375 cells harboring B-RAF V600E mutant assessed as cell growth inhibition irradiated with sun light for 0.5 mins measured after 72 hrs by CCK-8 analysis; type: functional, cell-based; conditions: A-375, light or radiation study
A-375 [8] = assay: Inhibition of ERK phosphorylation in human A-375 cells at 0.1 to 10 uM incubated for 2 hrs irradiated with 365 nm UV light for 5 mins by Western blot analysis; type: cell-based; conditions: dose 0.1-10 µM
A-375 [9] = assay: Antiproliferative activity against human A-375 cells harboring B-RAF V600E mutant assessed as cell growth inhibition measured after 72 hrs by CCK-8 analysis; type: functional, cell-based; conditions: A-375, 72 h
A-375 [10] = assay: Antiproliferative activity against human A-375 cells harboring B-RAF V600E mutant assessed as cell growth inhibition irradiated with sun light for 2.5 mins measured after 72 hrs by CCK-8 analysis; type: functional, cell-based; conditions: A-375, light or radiation study
[11] = biological target: Serine/threonine-protein kinase B-raf (Homo sapiens, UniProt P15056, V600E); assay: Inhibition of GST-tagged recombinant human B-RAF V600E mutant expressed in baculovirus expression system incubated for 1 hr in presence of ATP by FRET-based Z'-Lyte analysis
SK-MEL-1 [12] = assay: Antiproliferative activity against human SK-MEL-1 cells harboring […] B-RAF assessed as cell growth inhibition measured after 72 hrs by CCK-8 analysis; type: functional, cell-based; conditions: SK-MEL-1, 72 h
A-375 [13] = assay: Antiproliferative activity against human A-375 cells harboring B-RAF V600E mutant assessed as cell growth inhibition irradiated with 365 nm UV light for 10 mins measured after 72 hrs by CCK-8 analysis; type: functional, cell-based; conditions: A-375, light or radiation study
SK-MEL-1 [14] = assay: Antiproliferative activity against human SK-MEL-1 cells harboring […] B-RAF assessed as cell growth inhibition irradiated with 365 nm UV light for 5 mins measured after 72 hrs by CCK-8 analysis; type: functional, cell-based; conditions: SK-MEL-1, light or radiation study
A-375 [15] = assay: Antiproliferative activity against human A-375 cells harboring B-RAF V600E mutant assessed as cell growth inhibition irradiated with 365 nm UV light for 2.5 mins measured after 72 hrs by CCK-8 analysis; type: functional, cell-based; conditions: A-375, light or radiation study
SK-MEL-2 [16] = assay: Antiproliferative activity against human SK-MEL-2 cells harboring wild type B-RAF assessed as cell growth inhibition irradiated with 365 nm UV light for 5 mins measured after 72 hrs by CCK-8 analysis; type: functional, cell-based; conditions: SK-MEL-2, light or radiation study
A-375 [17] = assay: Antiproliferative activity against human A-375 cells harboring B-RAF V600E mutant assessed as cell growth inhibition irradiated with 365 nm UV light for 5 mins measured after 72 hrs by CCK-8 analysis; type: functional, cell-based; conditions: A-375, light or radiation study
[18] = Photorelease ability in PBS buffer assessed as N-(2,4-difluoro-3-((3-(4-fluorophenyl)-1H-pyrazolo[3,4-b]pyridin-5-yl)ethynyl)phenyl)pyridine-3-sulfonamide formation by measuring half life at 5.85 ug/ml irradiated with sun light by UPLC analysis; type: functional; conditions: dose 5.85 µg/ml
[19] = Photorelease ability in PBS buffer assessed as N-(2,4-difluoro-3-((3-(4-fluorophenyl)-1H-pyrazolo[3,4-b]pyridin-5-yl)ethynyl)phenyl)pyridine-3-sulfonamide formation by measuring half life at 5.85 ug/ml irradiated with 365 nm UV light by UPLC analysis; type: functional; conditions: dose 5.85 µg/ml

Serine/threonine-protein kinase B-raf, sequence (P15056 2-766 V600E limits assumed): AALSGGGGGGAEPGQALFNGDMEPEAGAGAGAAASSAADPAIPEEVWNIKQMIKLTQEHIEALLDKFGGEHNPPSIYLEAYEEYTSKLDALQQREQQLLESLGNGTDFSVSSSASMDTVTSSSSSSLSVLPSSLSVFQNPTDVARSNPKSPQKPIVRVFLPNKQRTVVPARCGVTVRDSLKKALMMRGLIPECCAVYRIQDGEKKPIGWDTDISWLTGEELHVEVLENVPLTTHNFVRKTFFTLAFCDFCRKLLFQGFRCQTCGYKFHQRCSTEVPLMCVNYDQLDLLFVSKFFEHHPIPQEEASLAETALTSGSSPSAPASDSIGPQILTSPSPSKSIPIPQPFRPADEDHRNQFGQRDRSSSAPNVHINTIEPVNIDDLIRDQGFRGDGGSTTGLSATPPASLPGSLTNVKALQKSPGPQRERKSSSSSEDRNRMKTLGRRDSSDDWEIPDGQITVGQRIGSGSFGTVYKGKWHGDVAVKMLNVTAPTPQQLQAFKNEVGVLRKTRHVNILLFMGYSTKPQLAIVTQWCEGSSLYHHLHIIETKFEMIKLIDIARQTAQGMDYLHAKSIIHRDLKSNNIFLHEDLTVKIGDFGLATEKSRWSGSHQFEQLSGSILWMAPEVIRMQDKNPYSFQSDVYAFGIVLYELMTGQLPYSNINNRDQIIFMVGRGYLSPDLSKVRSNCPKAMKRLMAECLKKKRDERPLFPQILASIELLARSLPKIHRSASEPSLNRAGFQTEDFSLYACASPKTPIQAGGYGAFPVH

Row | SMILES | IC50 (A-375 [1]) [nM] | IC50 (A-375 [2]) [nM] | Retention_time [3] [min] | IC50 (A-375 [4]) [nM] | inhibition (A-375 [5]) | IC50 (SK-MEL-2 [6]) [nM] | IC50 (A-375 [7]) [nM] | inhibition (A-375 [8]) | IC50 (A-375 [9]) [nM] | IC50 (A-375 [10]) [nM] | IC50 [11] [nM] | IC50 (SK-MEL-1 [12]) [nM] | IC50 (A-375 [13]) [nM] | IC50 (SK-MEL-1 [14]) [nM] | IC50 (A-375 [15]) [nM] | IC50 (SK-MEL-2 [16]) [nM] | IC50 (A-375 [17]) [nM] | T1/2 [18] [min] | T1/2 [19] [min]
1 | O=S(=O)(Nc1ccc(F)c(C#Cc2cnc3[nH]nc(-c4ccc(F)cc4)c3c2)c1F)c1cccnc1 | 190 | 190 | 1.7 | 170 | Active | > 10000 | 160 | Active | 210 | 160 | 21 | 760 | 220 | 560 | 170 | > 10000 | 180 | – | –
2 | COc1cc(CN(c2ccc(F)c(C#Cc3cnc4[nH]nc(-c5ccc(F)cc5)c4c3)c2F)S(=O)(=O)c2cccnc2)c([N+](=O)[O-])cc1OC | 700 | 290 | 5.9 | 280 | – | > 10000 | 850 | Active | > 10000 | 340 | > 10000 | > 10000 | 240 | 840 | 370 | > 10000 | 210 | 2.8 | 2
